Source: patent US9018248B2, “Fatty acid derivatives of catechins and methods of their use” (Genesis Group Inc., priority 2010, dated 2015)

Assay: TBARS formation in cooked pork model system
Conditions: 80 μmol/kg meat, stored at 4° C.
Procedure: Fresh ground pork (40 g) was mixed with deionized water (10 g) in a Mason jar. Samples and reference antioxidant compound (BHA) dissolved in ethanol were added to meat at a level of 80 μmol/kg. A control without any antioxidant was also prepared. The content was thoroughly mixed and cooked at 80° C. in a thermostated water bath for 40 min with intermittent stirring. The cooked meat was cooled to room temperature and homogenized with a Polytron PT 3000 (Brinkmann Instruments, Rexdale, ON) homogenizer. The homogenate was then transferred into plastic bags and stored at 4° C. for 14 days. […].
TBARS values were determined as described by Shahidi and Hong (Shahidi, F. and Hong, C. Evaluation of malonaldehyde as a marker of oxidative rancidity in meat products. J. Food Biochem. 15, 97-105, 1991).
A series of TMP (1,1,3,3-tetramethoxypropane) standard solutions at difference concentrations was mixed with thiobarbituric acid (TBA) in screw-capped tubes and heated in a boiling water bath for 45 min. After cooling on ice, the absorbance was recorded at 532 nm and a standard curve was constructed (absorbance versus concentration). For TBARS in the cooked meat model system, 2 g of meat were mixed with 5 ml of trichloroacetic acid (TCA, 10% w/v) in a centrifuge tube, followed by addition of 5 ml of TBA reagent. The mixture was centrifuged at 3000×g for 10 min and the supernatant was filtered. The filtrate was heated in a boiling water bath for 45 min and absorbance was measured at 532 nm after cooling to room temperature. TBARS values in meat samples were obtained using the standard curve as μmol malonaldehyde equivalents/kg of meat. Antioxidant activity was calculated as percentage inhibition of TBARS formation by test compounds.

With `COc1ccc(O)c(C(C)(C)C)c1` [BHA, reference compound] the “Inhibition of TBARS formation in cooked pork” value was 83.3 ± 2.34^ab %.
